Laboratory results published in patent US20200024223A1, “CRYSTALLINE SALTS OF (4S,4AS,5AR,12AS)-4-DIMETHYLAMINO-3,10,12,12A-TETRAHYDROXY-7-[(METHOXY(METHYL)AMINO)-METHYL]-1,11-DIOXO-1,4,4A,5,5A,6,11,12A-OCTAHYDRO-NAPHTHACENE-2-CARBOXYLIC ACID AMIDE AND METHODS OF USING THE SAME” (priority 2011, published 2020).
≈ marks a conversion by molar mass, not a printed value. Read-outs that look alike come from different tables or passages of the source.

Experiments:
S. aureus RN450-1 [1] = assay: S. aureus Systemic Intraperitoneal Challenge (IPC) Model; assay type: in vivo; conditions: CD-1 male mice, single SC dose 1 hour post infection, survival at 48 hours post infection
Method: Bacterial cultures were prepared by growing tetracycline-sensitive S. aureus RN450-1 overnight, then diluting with sterile phosphate-buffered saline (PBS). For each experiment, a total of 30 mice were infected by injection into the intraperitoneal cavity with 500 μl of 7.5×10^7 CFU in 5% sterile bacteriological mucin. […] The doses were administered subcutaneously (SC) at 1 hour post infection. An additional infected group of 5 mice was included as a negative control (untreated) group. For all studies but one, a positive control group(s) was included (e.g., doxycycline, minocycline, or ciprofloxacin). Mice were monitored for survival for up to 7 days. […] PD50 (protective dose, 50%) is the dose required to achieve 50% survival. The PD50 values reported are a mean of 2-3 independent experiments for each drug tested.

Salmonella spp. = assay: In vitro MIC testing, antibacterial spectrum of activity; assay type: cell-based
[2] = tested on: Carrageenan-Induced Rat Footpad Edema; assay: Rat Carrageenan-Induced Footpad Edema inflammation model; assay type: in vivo; conditions: 3 hours post carrageenan
Method: Immediately following the carrageenan injection and 3 hours post-injection, the hind paw volume was measured with a digital water plethysmometer. Results were calculated as a percent change in paw volume over the 3 hours, divided by the baseline paw volume, and then adjusted for the mean percent inflammation in the untreated controls, and are presented in Table 10.

S. pneumoniae PBS 1339 = conditions: neutropenic CD-1 male mice, single IV dose 2 hours post infection, survival at 72 hours post infection
S. aureus RN450-1 [3] = assay: S. aureus Thigh Wound Infection Model; assay type: in vivo; conditions: Staphylococcus aureus, RN4501, in Mus musculus, iv, read-out: S. aureus RN450-1 Thigh ED50
Method: Bacterial cultures were prepared by growing S. aureus RN450-1 overnight and diluting with sterile PBS. An injection of 100 μL of ˜1×10^6 CFU/mL in sterile PBS was injected into the thigh. Four groups of mice for each drug received doses of 0.33, 1, 3, or 9 mg/kg intravenously at 2 and 6 hours post infection. An additional group of untreated mice served as a negative control group. At 24 hours post infection, the thighs were collected aseptically, homogenized, and plated to enumerate bacterial load per thigh. Data are reported as ED50 values.

E. coli = assay: In vitro MIC testing, antibacterial spectrum of activity; assay type: cell-based
[4] = Differential scanning calorimetry (DSC); assay type: physicochemical; conditions: after synthesis
Method: DSC analysis as disclosed herein was collected on a TA Instruments Q2000 equipped with a 50 position auto-sampler. The instrument was calibrated for energy and temperature using certified indium. The calibration for thermal capacity was carried out using sapphire. […] A nitrogen purge at 50 ml.min^−1 was maintained over the sample. The instrument control software used was Advantage for Q Series v2.8.0.392 and Thermal Advantage v4.8.3 and the data was analyzed using Universal Analysis v4.4A. […] The observed apparent weight loss is due to instability of the machine. Table 5 below compares the DSC and TGA analysis of the crystalline salts of the present invention with the crystalline free base and Comparative Example 1.

[5] = Thermo-gravimetric analysis (TGA); assay type: physicochemical
Method: TGA is used to determine changes in weight in relation to change in temperature, which may reveal degradation of the compound and the presence of solvates or hydrates. TGA analysis as disclosed herein was collected on a TA Instruments Q500 TGA equipped with a 16 position auto-sampler. The instrument was temperature calibrated using certified Alumel and Nickel. […] A nitrogen purge at 60 ml.min^−1 was maintained over the sample. The instrument control and data analysis software used was Advantage for Q Series v2.8.0.392 and Thermal Advantage v4.8.3 and the data was analyzed using Universal Analysis v4.4A. […] The observed apparent weight loss is due to instability of the machine. Table 5 below compares the DSC and TGA analysis of the crystalline salts of the present invention with the crystalline free base and Comparative Example 1.

[6] = Storage stability by HPLC-UV (chemical purity, β-isomer content, total impurity content); assay type: physicochemical
Method: The lower the β-isomer content, the higher the chemical purity of the salt. The β-isomer content is measured after synthesis of the salt and compared with the measured β-isomer content after storage for a designated period of time.
Another measure of chemical purity is defined by the content of other related impurities, by-products or degradation products of the salt, which represents the […] of the compound. The lower the content of total impurities as measured by HPLC, generally, by HPLC-UV, the higher the chemical purity of the salt. The total impurity content is measured after synthesis of the salt and compared with the measured total impurity content after storage for a designated period of time.
In order to determine the stability of Crystalline Mono Hydrochloride Salt, the β-isomer content of the salt was determined by HPLC-UV analysis and compared to the β-isomer content calculated after the salt was stored in an amber glass vial for approximately 75 days at ambient conditions.
The β-isomer content of Comparative Example 2 was also determined by HPLC-UV analysis at 0 days and compared to the β-isomer content calculated after the compound was stored in a clear glass vial for approximately 75 days at ambient conditions.
HPLC-UV and XRPD analysis were conducted on samples of Crystalline Mono Hydrochloride Salt, Crystalline Mesylate Salt and Crystalline Sulfate Salt at 0 days and after storage for 7 days at 40° C. and 75% RH. FIGS. 1, 4 and 7 show the XRPD analysis of the Crystalline Mono Hydrochloride Salt, Crystalline Mesylate Salt and Crystalline Sulfate Salt at 0 days and after storage at 40° C. and 75% RH with the graphs overlaid for comparison.
The results of HPLC-UV analysis for the same samples of Crystalline Mesylate Salt and Crystalline Sulfate Salt are shown in Table 4.

[7] = tested on: Prevotella melaninogenica; assay: In vitro MIC testing against anaerobic bacteria; assay type: cell-based
[8] = tested on: Streptococcus constellatus; assay: In vitro MIC testing against anaerobic bacteria; assay type: cell-based; conditions: ATCC27823
S. pyogenes = assay: In vitro MIC testing, antibacterial spectrum of activity; assay type: cell-based; conditions: Streptococcus pyogenes, S. pyogenes
Staphylococcus aureus = assay: Inhibition of macromolecular synthesis in Staphylococcus aureus (whole-cell assay); assay type: cell-based; conditions: S. aureus, at 8-fold the MIC
E. cloacae = assay: In vitro MIC testing, antibacterial spectrum of activity; assay type: cell-based; conditions: Enterobacter cloacae, 7 of 30 strains inhibited
S. agalactiae = assay: as above; assay type: cell-based; conditions: Streptococcus agalactiae, S. agalactiae
[9] = tested on: Streptococcus spp. [Group C]; assay: as above; assay type: cell-based; conditions: Streptococcus, Group C streptococci
E. faecium = assay: as above; assay type: cell-based; conditions: Enterococcus faecium, vancomycin-susceptible E. faecium
S. pneumoniae = assay: as above; assay type: cell-based, Streptococcus pneumoniae; conditions: Streptococcus pneumoniae, PSSP, all but 3 strains inhibited
[10] = Escherichia coli, read-out: MIC50
[11] = Escherichia coli, read-out: MIC90

SMILES	S. aureus RN450-1 IPC PD50 (S. aureus RN450-1 [1])	MIC50 (Salmonella spp.)	MIC90 (Salmonella spp.)	Mean Percent Inflammation Compared to Untreated Controls ([2]; 75 mg/kg IP)	Mean Percent Inflammation Compared to Untreated Controls ([2]; 100 mg/kg IP)	S. pneumoniae PBS1339 RTI PD50 (S. pneumoniae PBS 1339)	ED50 (S. aureus RN450-1 [3])	MIC Range (E. coli)	MIC (E. coli; Escherichia coli)	MIC50 (E. coli; [10])	MIC90 (E. coli; [11])	Mean Percent Inflammation Compared to Untreated Controls ([2]; 25 mg/kg IP)	Mean Percent Inflammation Compared to Untreated Controls ([2]; 50 mg/kg IP)	further results
C[C@H]1c2cccc(O)c2C(=O)C2=C(O)[C@]3(O)C(=O)C(C(N)=O)=C(O)[C@@H](N(C)C)[C@@H]3[C@@H](O)[C@@H]21 [Doxycycline, doxycycline]	0.30 mg/kg	2 µg/mL (≈ 4.5 µM)	32 µg/mL (≈ 72 µM)	68%	36%	7.18 mg/kg	8.31 mg/kg	64-64 μg/mL	64 µg/mL (≈ 144 µM)	2 µg/mL (≈ 4.5 µM)	32 µg/mL (≈ 72 µM)			
CON(C)Cc1ccc(O)c2c1C[C@H]1C[C@H]3[C@H](N(C)C)C(O)=C(C(N)=O)C(=O)[C@@]3(O)C(O)=C1C2=O [Comparative Example 1, (4S,4aS,5aR,12aS)-4-dimethylamino-3,10,12,12a-tetrahydroxy-7-[(methoxy(methyl)amino)-methyl]-1,11-dioxo-1,4,4a,5,5a,6,11,12a-octahydro-naphthacene-2-carboxylic acid amide]														Differential Scanning Calorimetry [4]: Broad endothermic; TGA weight loss ([5]; from about 30° C. to about 106° C.): 7% weight loss from about 30 °C to; TGA weight loss ([5]; from about 106° C. to about 200° C.): 8% weight loss from about 106 °C; TGA weight loss ([5]; from about 200° C. to about 300° C.): 23% weight loss from about 200 °C; β-isomer content at 0 days ([6]; 0 days): 3.6 % peak area; β-isomer content after storage ([6]; 48 hours at about 40° C. and about 75% RH): 31.7 % peak area; β-isomer content after storage ([6]; 36 days at about 25° C. and about 60% RH): 8.7 % peak area; total impurity content at 0 days ([6]; HPLC-UV, 0 days): 4.2 % peak area; total impurity content after storage ([6]; about 2 days at about 40° C. and about 75% RH): 34.6 % peak area
CN(C)c1ccc(O)c2c1C[C@H]1C[C@H]3[C@H](N(C)C)C(O)=C(C(N)=O)C(=O)[C@@]3(O)C(O)=C1C2=O [Minocycline, minocycline]	0.03 mg/kg		8 µg/mL (≈ 17.5 µM)	54%	21%			8 to 16 µg/mL	16 µg/mL (≈ 35 µM)	1 µg/mL (≈ 2.19 µM)	8 µg/mL (≈ 17.5 µM)	47%	33%	MIC [7]: 16 µg/mL (≈ 35 µM); MIC [8]: 16 µg/mL (≈ 35 µM)
CON(C)Cc1ccc(O)c2c1C[C@H]1C[C@H]3[C@H](N(C)C)C(O)=C(C(N)=O)C(=O)[C@@]3(O)C(O)=C1C2=O [The Active, (4S,4aS,5aR,12aS)-4-dimethylamino-3,10,12,12a-tetrahydroxy-7-[(methoxy(methyl)amino)-methyl]-1,11-dioxo-1,4,4a,5,5a,6,11,12a-octahydro-naphthacene-2-carboxylic acid amide]	0.25 mg/kg	16 µg/mL (≈ 32.8 µM)		56%	53%	4.66 mg/kg	8.23 mg/kg					59%	52%	MIC (S. pyogenes; all but 6 strains inhibited): ≤ 0.25 µg/mL; MIC (S. pyogenes; elevated MICs for 5 strains): ≥ 4 µg/mL; inhibition for the synthesis of cell wall, DNA, RNA and lipid components (Staphylococcus aureus): less than 20%; MIC (E. cloacae): ≤ 1 µg/mL; Mean Percent Inflammation Compared to Untreated Controls ([2]; 1 mg/kg IP): 103%; Mean Percent Inflammation Compared to Untreated Controls ([2]; 5 mg/kg IP): 78%; Mean Percent Inflammation Compared to Untreated Controls ([2]; 10 mg/kg IP): 65%; Mean Percent Inflammation Compared to Untreated Controls ([2]; 150 mg/kg IP): 26%; MIC (S. agalactiae; 7 strains inhibited): ≤ 0.25 µg/mL; MIC (S. agalactiae; remainder of the isolates): 16 to 32 µg/mL (≈ 32.8 to 65.6 µM); MIC ([9]; 19 strains inhibited): ≤ 0.25 µg/mL; MIC ([9]; remainder of the isolates): 4 to 16 µg/mL (≈ 8.2 to 32.8 µM); MIC (E. faecium; 17 strains inhibited): ≤ 0.5 µg/mL; MIC (E. faecium; remainder of the isolates): 16 to 32 µg/mL (≈ 32.8 to 65.6 µM); MIC50 (E. coli): 16 µg/mL (≈ 32.8 µM); MIC90 (E. coli): > 64 µg/mL; MIC50 (E. coli; Escherichia coli, E. coli (33 isolates), read-out: MIC50): 16 µg/mL (≈ 32.8 µM); MIC (S. pneumoniae): ≤ 0.25 µg/mL
